Data: paper PMC11170107, “Development of a new hazard scoring system in primary neuronal cell cultures for drug-induced acute neuronal toxicity identification in early drug discovery” (Frontiers in Pharmacology, 2024)
Entries after “also recorded” stand apart in the source; their conditions may differ. Where two headings read alike, the source gives them in different places.

Columns and labels:
[1] = seizure ADR frequency in SIDER; ref Campillos et al., 2008; Kuhn et al., 2010; cited from earlier work
[2] = WHO adverse drug reactions VigiBase; ref Kumlien and Lundberg, 2010; cited from earlier work
[3] = Supplementary Table S1; cited from earlier work
[4] = test system: Male rats (Sprague-Dawley); assay: EEG recordings and behavioral seizures in freely moving rats; format: in vivo; conditions: freely moving rat, iv
From the text: Electroencephalogram (EEG) rodent studies and assessment of seizures: Male rats (n = 8) (Sprague-Dawley), 400-800 g, were surgically implanted with Stellar Implantable Transmitter (E−430001-IMP-77, Type PBT-M-C Pressure, Biopotential, Temp; TSE systems USA) and microchipped with RFID (Bio13. Therm.03V1 PLS, Biomark Inc, USA) transponder for measurements of activity and body temperature. EEG was used to confirm that convulsive activity is linked to seizurogenic activity measured on the EEG.

[5] = test system: rat primary cortical neurons; assay: MEA hazard scoring in rat primary cortical neuronal cultures; conditions: for firing rate (weighted mean firing rate) in MEA recordings: rodent cortical neurons in vitro; for Area.Under.Cross.Correlation Lower.TI / Area.Under.Cross.Correlation Upper.TI / Burst.Duration...Avg.(s. Lower.TI) / Burst.Duration...Avg.(s. Upper.TI) / Mean.Firing.Rate..Hz. Lower.TI / Mean.Firing.Rate..Hz. Upper.TI / Median.Mean.ISI Lower.TI / Median.Mean.ISI Upper.TI: statistical tolerance interval of the ΔΔ% effect, One-sided interval; for hazard classification in the hazard scoring system: rat primary neurons on MEA
Protocol: (§1) At DIV28, spontaneous neuronal activity obtained for 30 min in culture solution was defined as the baseline.
(§2) Data analysis was captured using AxIs suite software (Axion Biosystems Inc., version 3.6.2) and further analyzed using GraphPad Prism (version 9.00; GraphPad Software Inc., San Diego, CA). […] An active well should have more than 40% active electrodes. All wells below this threshold were discarded upon these quality criteria. For the downstream statistical analysis, the data on each MEA parameter was first expressed as the ratio of exposed wells (percentage change between baseline and the treatment) and then normalized to the average of the control within the same plate. i.e., Baseline corrected ratios of n= 7 or eight wells were averaged per condition. Each well of the MEA served as its own control, and the changes in the electrical activity elicited by the treatments were expressed as a percentage of that control activity and normalized to the wells treated with the vehicle control dimethyl sulfoxide (DMSO). […] Differences were determined using the non-parametric Wilcoxon Mann Whitney test; p-values below 0.05 were considered significant. Data are expressed as means ± S.E.M.
(§3) Thereafter, based on the effects of vehicles and positive controls, we determined the cut-off points between the different effect zones according to the key parameters selected as described in the previous subsection. The zones were defined as follows. The “no effect” zone reflects parameter changes that are most likely within vehicle variability. The “mild” and “strong” zones are differentiated bidirectionally showing mild and strong effects.
(§4) The respective hazard class was determined by a cumulative scoring of individual parameters using a scoring matrix, which was based on the following three fundamental components: (1) selection of the six key relevant parameters, (2) defining the cutoffs for the level of effect, and (3) defining weighted points per parameter for the level of hazard potential. The scoring matrix concluded with the addition of a weighted point algorithm to discriminate distinct degrees of neuronal hazard. […] The weighted points were defined on the importance of a parameter (and the direction of effect), as well as the identification of an expected hazard for different pharmacological modes of action. The overall hazard score is derived from the sum of all weighted parameters, which could be converted into a specific hazard label. The weighted points and total score range associated with the various hazard labels were optimized using an iterative process.

[6] = test system: rat primary cortical neurons
Protocol: as §1, §2, §3, §4

[7] = established from VigiBase, SIDER, Elsevier drug information and FDA prescribing information
[8] = ref National library of medicine, Daylimed; cited from earlier work

| Molecule | SIDER ADR on-/off-label [1] | Percentage seizures of total number of ADRs [2] [%] | Free Cmax highest [3] [nM] | hazard score group in Figure 3 [6] | Classification* (degree of seizure risk) [7] | FDA prescription information at therapeutic dose (Convulsion/ Seizure/Lower the seizure threshold/withdrawal) [8] | other results |
| --- | --- | --- | --- | --- | --- | --- | --- |
| Nc1ccncc1 [4-Aminopyridine] | no frequency information | 2.353 | 240 | Neuro Active to high hazard | Risk | – | EEG spikes ([4]; 1 mg/kg): significantly increased; convulsions and seizures ([4]; 3 mg/kg): induced convulsions and seizures; firing rate (weighted mean firing rate) in MEA recordings [5]: largely increased |
| NCc1cc(=O)[nH]o1 [Muscimol] | – | – | – | – | Risk | – | Area.Under.Cross.Correlation Lower.TI [5]: -100; Area.Under.Cross.Correlation Upper.TI [5]: -21.99; Burst.Duration...Avg.(s. Lower.TI) [5]: -100; Burst.Duration...Avg.(s. Upper.TI) [5]: 465.5; Mean.Firing.Rate..Hz. Lower.TI [5]: -100; Mean.Firing.Rate..Hz. Upper.TI [5]: -23.34; Median.Mean.ISI Lower.TI [5]: -100; Median.Mean.ISI Upper.TI [5]: 1.885 |
| CN1C(=O)CN=C(c2ccccc2)c2cc(Cl)ccc21 [Diazepam] | – | – | – | Neuro Active to high hazard | – | On label | – |
| CC(C)C[C@H](CN)CC(=O)O [Pregabalin] | – | 0.8034 | – | Non-Neuro Active | – | – | – |
| CN1CCC[C@H]1c1cccnc1 [Nicotine] | not found on label | – | 180 | Non-Neuro Active | – | not found on label | hazard classification in the hazard scoring system [6]: non-neuroactive |
| N#Cc1ccccc1-c1cc(-c2ccccn2)cn(-c2ccccc2)c1=O [Perampanel] | not found on label | 7.31 | 163 | – | Low risk | not found on label | hazard classification in the hazard scoring system [5]: hazards; also recorded: high hazard |
| O=C1CN=C(c2ccccc2Cl)c2cc([N+](=O)[O-])ccc2N1 [Clonazepam] | not found on label | 2.831 | 12 | Neuro Active to hazard | Risk | on label | hazard classification in the hazard scoring system [5]: hazards |
| CCOC(=O)C1(c2ccccc2)CCN(C)CC1 [Pethidine] | no frequency information | – | 250 | Neuro Active to hazard | – | – | – |
| CCCC(C)C1(CC)C(=O)NC(=O)NC1=O (stereo not drawn) [Pentobarbital] | not found on label | 3.3557 | 5100 | Neuro Active to hazard | Risk | not found on label | – |
| N=C(N)NC(=O)c1nc(Cl)c(N)nc1N [Amiloride] | not found on label | 0.3506 | 74.6 | – | No risk | not found on label | hazard classification in the hazard scoring system [5]: high seizure risk; firing rate (weighted mean firing rate) in MEA recordings [5]: increase of activity |
| O=C(CCCl)NCc1ccccc1 [Beclamide] | – | 0 | – | – | Low risk | – | hazard classification in the hazard scoring system [5]: high hazard |
| NCC1(CC(=O)O)CCCCC1 [Gabapentin] | postmarketing | 1.766 | 2080 | Neuro Active to high hazard | Risk | On label | – |
| Picrotoxin | – | – | – | – | Risk | – | Area.Under.Cross.Correlation Lower.TI [5]: -46.52; Area.Under.Cross.Correlation Upper.TI [5]: 62.45; Burst.Duration...Avg.(s. Lower.TI) [5]: -2.013; Burst.Duration...Avg.(s. Upper.TI) [5]: 280.4; Mean.Firing.Rate..Hz. Lower.TI [5]: -10.62; Mean.Firing.Rate..Hz. Upper.TI [5]: 76.43; Median.Mean.ISI Lower.TI [5]: -29.71; Median.Mean.ISI Upper.TI [5]: 0.6132 |
| CNCCC(Oc1ccc(C(F)(F)F)cc1)c1ccccc1 (stereo not drawn) [Fluoxetine] | uncommon | 1.97 | 470 | – | Risk | On label | – |
| NCC(=O)O [Glycine] | no frequency information | – | – | Neuro Active to hazard | – | not found on label | – |
| CN1C[C@H](C(=O)N[C@]2(C)O[C@@]3(O)[C@@H]4CCCN4C(=O)[C@H](Cc4ccccc4)N3C2=O)C=C2c3cccc4[nH]cc(c34)C[C@H]21 [Ergotamine] | not found on label | 0.8818 | 0.4 | Neuro Active to high hazard | Risk | not found on label | – |
